Reference: ChEMBL document CHEMBL5505981, “Design, synthesis and biological evaluation of novel 1,2,4a,5-tetrahydro-4H-benzo[b][1,4]oxazino[4,3-d][1,4]oxazine-based AAK1 inhibitors with anti-viral property against SARS-CoV-2” (Eur J Med Chem, 2024)

Experiments:
HEK293 [1] = type: toxicity, cell-based; details: human, hek293, 48 h, 6 µM
HEK293 [2] = type: toxicity, cell-based; details: human, hek293, 48 h, 30 µM
[3] = molecular target: T1, AP2-associated protein kinase 1 (Homo sapiens, UniProt Q2M2I8); assay: Inhibition of AAK1 (unknown origin)
Dengue virus = assay: Antiviral activity against DENV infected in human Huh-7 cells; type: functional, organism-based
[4] = molecular target: T1, AP2-associated protein kinase 1; type: cell-based
HEK293 [5] = type: toxicity, cell-based; details: human, hek293, 48 h, 20 µM
[6] = Cytotoxicity against human Huh7.5 cells; type: toxicity, cell-based, Huh-7.5
[7] = Cytotoxicity against human Huh-7 cells; type: toxicity, cell-based
Ebolavirus = assay: Antiviral activity against EBOV; type: functional, organism-based; details: Orthoebolavirus

T1 sequence (Q2M2I8 whole entry): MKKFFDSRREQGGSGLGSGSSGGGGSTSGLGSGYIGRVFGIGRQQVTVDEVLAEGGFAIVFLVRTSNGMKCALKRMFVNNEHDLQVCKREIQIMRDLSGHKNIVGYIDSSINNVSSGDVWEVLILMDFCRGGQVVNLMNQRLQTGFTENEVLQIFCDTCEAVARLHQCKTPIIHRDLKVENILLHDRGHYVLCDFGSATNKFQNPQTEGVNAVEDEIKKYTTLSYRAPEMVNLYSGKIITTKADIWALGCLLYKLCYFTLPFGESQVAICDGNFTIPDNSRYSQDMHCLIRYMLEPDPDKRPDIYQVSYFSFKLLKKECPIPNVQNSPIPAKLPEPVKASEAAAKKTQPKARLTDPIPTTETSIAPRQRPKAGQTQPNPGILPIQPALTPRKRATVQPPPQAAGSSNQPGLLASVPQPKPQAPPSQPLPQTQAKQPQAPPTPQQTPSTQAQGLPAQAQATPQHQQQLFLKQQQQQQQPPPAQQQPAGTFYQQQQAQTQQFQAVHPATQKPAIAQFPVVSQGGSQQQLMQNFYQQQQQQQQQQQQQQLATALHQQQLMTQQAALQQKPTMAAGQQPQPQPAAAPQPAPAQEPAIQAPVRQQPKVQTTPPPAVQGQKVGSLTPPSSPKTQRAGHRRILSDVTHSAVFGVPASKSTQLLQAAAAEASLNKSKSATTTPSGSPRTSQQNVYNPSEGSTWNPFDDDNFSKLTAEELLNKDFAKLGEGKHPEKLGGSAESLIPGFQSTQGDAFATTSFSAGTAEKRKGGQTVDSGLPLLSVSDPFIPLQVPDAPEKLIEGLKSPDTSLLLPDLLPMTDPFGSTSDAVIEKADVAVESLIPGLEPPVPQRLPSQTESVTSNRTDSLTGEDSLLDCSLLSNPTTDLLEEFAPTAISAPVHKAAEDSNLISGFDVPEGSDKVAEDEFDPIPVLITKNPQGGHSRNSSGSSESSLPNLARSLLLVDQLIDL

SMILES: C(#Cc1c[nH]c2ncc(-c3ccc4c(c3)OCC3COCCN43)cc12)c1cccnc1 (stereo not given)
- Activity (HEK293 [1]): Toxic

SMILES: CC(C)C[C@](C)(N)COc1ccc(-c2ccnc(C(F)F)c2)nc1C(F)F [PILAVAPADIN]
- Activity (HEK293 [2]): Non-Toxic
- IC50 [3]: 1.2 nM

SMILES: COc1ccc(-c2cnc3[nH]cc(C#Cc4cccnc4)c3c2)cc1OC
- EC50 (Dengue virus): 720 nM
- IC50 [4]: 7.57 nM
- Activity (HEK293 [1]): Toxic

SMILES: NCCCC#Cc1c[nH]c2ncc(-c3ccc4c(c3)OCC3COCCN43)cc12 (stereo not given)
- IC50 [4]: > 500 nM

SMILES: CCN(CC)S(=O)(=O)Nc1cccc(-c2ccc3c(NC(=O)C4CC4)n[nH]c3c2)c1
- Activity (HEK293 [2]): Non-Toxic

SMILES: CCN(CC)CCNC(=O)c1c(C)[nH]c(/C=C2\C(=O)Nc3ccc(F)cc32)c1C [SUNITINIB]
- Activity (HEK293 [5]): Non-Toxic
- CC50 [6]: > 10000 nM
- CC50 [7]: 11500 nM

SMILES: N#Cc1ccc(-c2cnc3[nH]cc(NC(=O)c4cccnc4)c3c2)cc1
- EC50 (Dengue virus): 8000 nM
- EC50 (Ebolavirus): > 10000 nM
- CC50 [7]: > 50000 nM

SMILES: C(#Cc1c[nH]c2ncc(-c3ccc4c(c3)OCC3COCCN43)cc12)c1ccccc1 (stereo not given)
- IC50 [4]: > 500 nM
